Assay results from patent US12404241B2 (Celgene Corporation, priority 2018, dated 2025).
Where a name gives a salt, the structure may show the parent alone.

Target: T1, AR (Homo sapiens, UniProt P10275)
T1 construct: endogenous in cells; host or cells: VCaP cells
T1 sequence (P10275 1-920): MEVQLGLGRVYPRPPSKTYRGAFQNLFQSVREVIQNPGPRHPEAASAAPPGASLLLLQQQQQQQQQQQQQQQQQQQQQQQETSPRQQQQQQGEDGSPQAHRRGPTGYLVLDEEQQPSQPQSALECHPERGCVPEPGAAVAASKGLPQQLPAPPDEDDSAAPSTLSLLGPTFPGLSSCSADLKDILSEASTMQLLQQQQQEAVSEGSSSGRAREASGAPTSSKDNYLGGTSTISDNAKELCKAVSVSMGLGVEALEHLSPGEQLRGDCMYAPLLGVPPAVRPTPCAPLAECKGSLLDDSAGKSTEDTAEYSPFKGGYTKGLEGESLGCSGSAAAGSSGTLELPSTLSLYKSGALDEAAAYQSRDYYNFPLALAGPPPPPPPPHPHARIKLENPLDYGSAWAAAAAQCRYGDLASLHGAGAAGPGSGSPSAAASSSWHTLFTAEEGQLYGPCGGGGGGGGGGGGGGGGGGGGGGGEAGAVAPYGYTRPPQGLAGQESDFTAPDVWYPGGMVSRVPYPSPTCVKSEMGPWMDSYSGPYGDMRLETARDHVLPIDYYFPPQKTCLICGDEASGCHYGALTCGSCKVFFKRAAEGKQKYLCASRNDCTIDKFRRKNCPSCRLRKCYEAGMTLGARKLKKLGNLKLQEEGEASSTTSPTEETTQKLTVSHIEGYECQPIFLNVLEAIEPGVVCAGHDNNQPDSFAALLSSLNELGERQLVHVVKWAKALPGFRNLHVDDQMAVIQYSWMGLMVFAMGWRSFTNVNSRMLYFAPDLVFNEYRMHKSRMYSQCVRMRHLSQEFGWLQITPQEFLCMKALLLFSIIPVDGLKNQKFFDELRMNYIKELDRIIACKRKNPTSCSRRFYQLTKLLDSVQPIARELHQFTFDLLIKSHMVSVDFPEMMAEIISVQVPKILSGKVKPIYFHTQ
Assay: VCAP AR Degradation Assay
Format: cell-based
Settings: for Y (AR degradation efficiency, % of DMSO control): class symbols *; for DC50: class symbols A-C, read-out: DC50
How it was run: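 Compounds were plated as 10-point 1:3 series reaching 5 μM final, then VCaP cells were seeded onto them and incubated 24 h at 37 °C. Cells were lysed cold, and total AR was measured by sandwich ELISA relative to 0.1% DMSO wells.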

CCc1cc(N2C(=S)N(c3ccc(C#N)c(C(F)(F)F)c3)C(=O)C2(C)C)ccc1OCCN1C[C@H](C)N(CC(=O)Nc2cc(Cl)cc(NC3CCC(=O)NC3=O)c2)C[C@H]1C (stereo partly drawn) [Example 124, N-(3-chloro-5-(2,6-dioxopiperidin-3-ylamino)phenyl)-2-((2S,5R)-4-(2-(4-(3-(4-cyano-3-(trifluoromethyl)phenyl)-5,5-dimethyl-4-oxo-2-thioxoimidazolidin-1-yl)-2-ethylphenoxy)ethyl)-2,5-dimethylpiperazin-1-yl)acetamide]
Y (AR degradation efficiency, % of DMSO control): * (0<Y<=25%)
DC50: 100 to 500 nM

CCc1cc(N2C(=S)N(c3cnc(C#N)c(C(F)(F)F)c3)C(=O)C2(C)C)ccc1OCCN1C[C@@H]2CC[C@H]1CN2CC(=O)Nc1cc(Cl)cc(NC2CCC(=O)NC2=O)c1 (stereo partly drawn) [Example 179, N-(3-chloro-5-(2,6-dioxopiperidin-3-ylamino)phenyl)-2-((1S,4S)-5-(2-(4-(3-(6-cyano-5-(trifluoromethyl)pyridin-3-yl)-5,5-dimethyl-4-oxo-2-thioxoimidazolidin-1-yl)-2-ethylphenoxy)ethyl)-2,5-diazabicyclo[2.2.2]octan-2-yl)acetamide]
Y (AR degradation efficiency, % of DMSO control): ** (25%<Y<=35%)
DC50: 100 to 500 nM

CC1(C)C(=O)N(c2ccc(C#N)c(C(F)(F)F)c2)C(=S)N1c1ccc(OCCN2CC3CCC(C2)N3CC(=O)Nc2cccc(NC3CCC(=O)NC3=O)c2)c(C2CC2)c1 (stereo not drawn) [Example 238, 2-(3-(2-(4-(3-(4-cyano-3-(trifluoromethyl)phenyl)-5,5-dimethyl-4-oxo-2-thioxoimidazolidin-1-yl)-2-cyclopropylphenoxy)ethyl)-3,8-diazabicyclo[3.2.1]octan-8-yl)-N-(3-(2,6-dioxopiperidin-3-ylamino)phenyl)acetamide]
Y (AR degradation efficiency, % of DMSO control): * (0<Y<=25%)
DC50: 500 to 1000 nM

CCc1cc(N2C(=S)N(c3ccc(C#N)c(C(F)(F)F)c3)C(=O)C2(C)C)ccc1OCCN1CCN(CC(=O)Nc2cc(C#N)cc(NC3CCC(=O)NC3=O)c2)[C@H](C)C1 (stereo partly drawn) [Example 154, 2-((R)-4-(2-(4-(3-(4-cyano-3-(trifluoromethyl)phenyl)-5,5-dimethyl-4-oxo-2-thioxoimidazolidin-1-yl)-2-ethylphenoxy)ethyl)-2-methylpiperazin-1-yl)-N-(3-cyano-5-(2,6-dioxopiperidin-3-ylamino)phenyl)acetamide]
Y (AR degradation efficiency, % of DMSO control): * (0<Y<=25%)
DC50: < 100 nM

CCc1cc(N2C(=S)N(c3cnc(C#N)c(C(F)(F)F)c3)C(=O)C23CCC3)ccc1OCCN1C[C@@H](C)N(CC(=O)Nc2cc(NC3CCC(=O)NC3=O)ccc2F)[C@@H](C)C1 (stereo partly drawn) [Example 190, 2-((2S,6R)-4-(2-(4-(7-(6-cyano-5-(trifluoromethyl)pyridin-3-yl)-8-oxo-6-thioxo-5,7-diazaspiro[3.4]octan-5-yl)-2-ethylphenoxy)ethyl)-2,6-dimethylpiperazin-1-yl)-N-(5-(2,6-dioxopiperidin-3-ylamino)-2-fluorophenyl)acetamide]
Y (AR degradation efficiency, % of DMSO control): * (0<Y<=25%)
DC50: < 100 nM

CCc1cc(N2C(=S)N(c3cnc(C#N)c(C(F)(F)F)c3)C(=O)C2(C)C)ccc1OCCN1CCN(CC(=O)Nc2cc(NC3CCC(=O)NC3=O)cc(F)c2F)C(C)(C)C1 (stereo not drawn) [Example 83, 2-(4-(2-(4-(3-(6-cyano-5-(trifluoromethyl)pyridin-3-yl)-5,5-dimethyl-4-oxo-2-thioxoimidazolidin-1-yl)-2-ethylphenoxy)ethyl)-2,2-dimethylpiperazin-1-yl)-N-(5-(2,6-dioxopiperidin-3-ylamino)-2,3-difluorophenyl)acetamide]
Y (AR degradation efficiency, % of DMSO control): * (0<Y<=25%)
DC50: < 100 nM

CCc1cc(N2C(=S)N(c3ccc(C#N)c(C(F)(F)F)c3)C(=O)C2(C)C)ccc1OCCN1C[C@@H](C)N(CC(=O)Nc2cccc(NC3CCC(=O)NC3=O)c2)C[C@@H]1C (stereo partly drawn) [Example 121, 2-((2R,5S)-4-(2-(4-(3-(4-cyano-3-(trifluoromethyl)phenyl)-5,5-dimethyl-4-oxo-2-thioxoimidazolidin-1-yl)-2-ethylphenoxy)ethyl)-2,5-dimethylpiperazin-l-yl)-N-(3-(2,6-dioxopiperidin-3-ylamino)phenyl)acetamide]
Y (AR degradation efficiency, % of DMSO control): * (0<Y<=25%)
DC50: < 100 nM

C[C@@H]1CN(CCOc2ccc(N3C(=S)N(c4ccc(C#N)c(Cl)c4)C(=O)C3(C)C)cc2C2CC2)C[C@H](C)N1CC(=O)Nc1cc(C#N)cc(NC2CCC(=O)NC2=O)c1 (stereo partly drawn) [Example 219, 2-((2S,6R)-4-(2-(4-(3-(3-chloro-4-cyanophenyl)-5,5-dimethyl-4-oxo-2-thioxoimidazolidin-1-yl)-2-cyclopropylphenoxy)ethyl)-2,6-dimethylpiperazin-1-yl)-N-(3-cyano-5-(2,6-dioxopiperidin-3-ylamino)phenyl)acetamide]
Y (AR degradation efficiency, % of DMSO control): ** (25%<Y<=35%)
DC50: < 100 nM

C[C@@H]1CN(CCOc2ccc(N3C(=S)N(c4cnc(C#N)c(C(F)(F)F)c4)C(=O)C3(C)C)cc2C(C)(F)F)C[C@H](C)N1CC(=O)Nc1cccc(NC2CCC(=O)NC2=O)c1 (stereo partly drawn) [Example 255, 2-((2S,6R)-4-(2-(4-(3-(6-cyano-5-(trifluoromethyl)pyridin-3-yl)-5,5-dimethyl-4-oxo-2-thioxoimidazolidin-1-yl)-2-(1,1-difluoroethyl)phenoxy)ethyl)-2,6-dimethylpiperazin-1-yl)-N-(3-(2,6-dioxopiperidin-3-ylamino)phenyl)acetamide]
Y (AR degradation efficiency, % of DMSO control): * (0<Y<=25%)
DC50: < 100 nM

CCc1cc(N2C(=S)N(c3ccc(C#N)c(C(F)(F)F)c3)C(=O)C2(C)C)ccc1OCCN1CCN(CC(=O)Nc2cccc(NC3CCC(=O)NC3=O)c2)[C@H](C)C1 (stereo partly drawn) [Example 45]
Y (AR degradation efficiency, % of DMSO control): * (0<Y<=25%)
DC50: < 100 nM

C[C@@H]1CN(CCOc2ccc(N3C(=S)N(c4ccc(C#N)c(C(F)(F)F)c4)C(=O)C3(C)C)cc2Cl)C[C@H](C)N1CC(=O)Nc1cccc(NC2CCC(=O)NC2=O)c1 (stereo partly drawn) [Example 282, 2-((2S,6R)-4-(2-(2-chloro-4-(3-(4-cyano-3-(trifluoromethyl)phenyl)-5,5-dimethyl-4-oxo-2-thioxoimidazolidin-1-yl)phenoxy)ethyl)-2,6-dimethylpiperazin-1-yl)-N-(3-(2,6-dioxopiperidin-3-ylamino)phenyl)acetamide]
Y (AR degradation efficiency, % of DMSO control): * (0<Y<=25%)
DC50: < 100 nM

C[C@@H]1CN(CCOc2ccc(N3C(=S)N(c4ccc(C#N)c(C(F)(F)F)c4)C(=O)C3(C)C)cc2Cl)CCN1CC(=O)Nc1cccc(NC2CCC(=O)NC2=O)c1 (stereo partly drawn) [Example 276, 2-((R)-4-(2-(2-chloro-4-(3-(4-cyano-3-(trifluoromethyl)phenyl)-5,5-dimethyl-4-oxo-2-thioxoimidazolidin-1-yl)phenoxy)ethyl)-2-methylpiperazin-1-yl)-N-(3-(2,6-dioxopiperidin-3-ylamino)phenyl)acetamide]
Y (AR degradation efficiency, % of DMSO control): * (0<Y<=25%)
DC50: < 100 nM

C[C@@H]1CN(CCOc2ccc(N3C(=S)N(c4ccc(C#N)c(C(F)(F)F)c4)C(=O)C34CCC4)cc2C2CC2)C[C@H](C)N1CC(=O)Nc1cccc(NC2CCC(=O)NC2=O)c1 (stereo partly drawn) [Example 225, 2-((2R,6S)-4-(2-(4-(7-(4-cyano-3-(trifluoromethyl)phenyl)-8-oxo-6-thioxo-5,7-diazaspiro[3.4]octan-5-yl)-2-cyclopropylphenoxy)ethyl)-2,6-dimethylpiperazin-1-yl)-N-(3-(2,6-dioxopiperidin-3-ylamino)phenyl)acetamide]
Y (AR degradation efficiency, % of DMSO control): * (0<Y<=25%)
DC50: < 100 nM

CCCc1cc(N2C(=S)N(c3cnc(C#N)c(C(F)(F)F)c3)C(=O)C2(C)C)ccc1OCCN1CCN(CC(=O)Nc2cccc(NC3CCC(=O)NC3=O)c2)CC1 (stereo not drawn) [Example 38, hydrochloride]
Y (AR degradation efficiency, % of DMSO control): * (0<Y<=25%)
DC50: < 100 nM

CCc1cc(N2C(=S)N(c3ccc(C#N)c(C(F)(F)F)c3)C(=O)C2(C)C)ccc1OCCN1CCN([C@@H](C)C(=O)Nc2cccc(NC3CCC(=O)NC3=O)c2)[C@@H](C)C1 (stereo partly drawn) [Example 275, (2S)-2-((S)-4-(2-(4-(3-(4-cyano-3-(trifluoromethyl)phenyl)-5,5-dimethyl-4-oxo-2-thioxoimidazolidin-1-yl)-2-ethylphenoxy)ethyl)-2-methylpiperazin-1-yl)-N-(3-(2,6-dioxopiperidin-3-ylamino)phenyl)propanamide]
Y (AR degradation efficiency, % of DMSO control): * (0<Y<=25%)
DC50: < 100 nM
